Laboratory results from US20130172345A1, “1-ACYL-4-(PHENOXY, BENZYLOXY, OR PHENYLAMINO)-1,2,3,4-TETRAHYDROQUINOLINE DERIVATIVES” (KOWA COMPANY, LTD., priority 2007, published 2013).
Where a name gives a salt, the structure may show the parent alone.

Columns and labels:
[1] = test system: HepG2 cells originating from human liver cancer; experiment: EPO production in HepG2 cells (EPO ELISA of culture supernatant, 4% oxygen, 48 hrs); type: cell-based; conditions: test compound 3 μM, oxygen 4%, non-stimulated state = 100%, read-out: EPO production amount, % of control (3 μM)
Method: HepG2 cells originating from human liver cancer were seeded at a density of 1×10^4 cells per well on a 24-well plate by using minimum essential medium (MEM, manufactured by Sigma) comprising 10% bovine fetal serum. Next day, the medium was exchanged with Dulbecco's modified eagle medium (DMEM, manufactured by Sigma) comprising 10% bovine fetal serum lacking phenol red. Then, the test compound dissolved in DMSO was added thereto to obtain the final concentration of 3 μM or 10 μM while having 400 μl of the medium per well. The cells were incubated for 48 hrs in a CO2 incubator which had been adjusted to have oxygen concentration of 4%, followed by collecting the culture supernatant. The EPO concentration in the culture supernatant was immediately measured by using EPO ELISA kit (manufactured by Roche Diagnostics K.K.). Specific procedures were carried out according to the manufacturer's protocol included in the kit.
When EPO production amount in non-stimulated state, i.e., without addition of any compound, was 100%, the EPO production amount induced by each compound was calculated (% of control).

[2] = test system: K562 cells, human proerythroblast cells; experiment: Hemoglobin production in K562 cells (fluorescence of the porphyrin ring); type: cell-based; conditions: 144 h, test compound 6 μM, 3+3 days, non-stimulated state = 100%, read-out: production amount of hemoglobin, % of control (6 μM)
Outline: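 K562 cells at 1×10^5 cells/mL in RPMI-1640 with 10% FBS, exposed to compound 3 days, medium exchanged, then 3 more days at 37 °C, 5% CO2. Hemoglobin from 3×10^5 cells measured as porphyrin fluorescence after boiling 30 min in 2 M oxalic acid; expressed as % of untreated control.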

| SMILES | activity at 3 µM [1] | activity at 6 µM [2] |
| --- | --- | --- |
| CC(=O)N1c2cc(F)ccc2[C@H](Oc2ccc(F)cc2)C[C@@H]1C (relative stereo) [Compound 56, cis-1-acetyl-7-fluoro-4-(4-fluorophenoxy)-2-methyl-1,2,3,4-tetrahydroquinoline] | 213% | 119% |
| CC(=O)N1c2ccccc2C(Nc2ccc(NS(C)(=O)=O)cc2)CC1C (stereo not shown) [Compound 39, 1-acetyl-4-[(4-methanesulfonylamidephenyl)amino]-2-methyl-1,2,3,4-tetrahydroquinoline] | 131% | 327% |
| CC(=O)N1c2ccccc2C(Nc2ccc(C(C)C)cc2)CC1C (stereo not shown) [Compound 21, 1-acetyl-4-[(4-isopropylphenyl)amino]-2-methyl-1,2,3,4-tetrahydroquinoline] | 231% | 301% |
| CC(=O)N1c2ccc(F)cc2C(Nc2ccc(CC(N)=O)cc2)CC1C (stereo not shown) [Compound 124, 1-acetyl-4-[(4-carbamoylmethylphenyl)amino]-6-fluoro-2-methyl-1,2,3,4-tetrahydroquinoline] | 147% | 119% |
| CCOC(=O)c1ccc2c(c1)C(Nc1ccc(CC#N)cc1)CC(C)N2C(C)=O (stereo not shown) [Compound 103, ethyl 1-acetyl-4-[(4-cyanomethylphenyl)amino]-2-methyl-1,2,3,4-tetrahydroquinoline-6-carboxylate] | 108% | 485% |
| CC(=O)N1c2ccccc2[C@H](Nc2ccc(N3CCN(S(C)(=O)=O)CC3)cc2)C[C@@H]1C (relative stereo) [Compound 78, cis-1-acetyl-4-{[4-(4-methanesulfonylpiperazinyl)phenyl]amino}-2-methyl-1,2,3,4-tetrahydroquinoline] | 217% | 210% |
| CC(=O)N1c2ccccc2[C@H](OCc2ccccc2)C[C@@H]1C (relative stereo) [Compound 36, cis-1-acetyl-2-methyl-4-benzyloxy-1,2,3,4-tetrahydroquinoline] | 114% | 83% |
| CCOC(=O)c1ccc2c(c1)C(Oc1ccc(F)cc1)CC(C)N2C(C)=O (stereo not shown) [Compound 53, ethyl 1-acetyl-4-(4-fluorophenoxy)-2-methyl-1,2,3,4-tetrahydroquinoline-6-carboxylate] | 134% | 307% |
| C[C@H]1C[C@@H](Nc2ccc(F)cc2)c2cc(F)ccc2N1C(=O)C1CCCCC1 (relative stereo) [Compound 6, cis-1-cyclohexanecarbonyl-6-fluoro-4-[(4-fluorophenyl)amino]-2-methyl-1,2,3,4-tetrahydroquinoline] | 225% | 326% |
| CC(=O)N1c2ccccc2C(Nc2ccc(CC(N)=O)cc2)CC1C (stereo not shown) [Compound 75, 1-acetyl-4-[(4-carbamoylmethylphenyl)amino]-2-methyl-1,2,3,4-tetrahydroquinoline] | 346% | 282% |
| CC(=O)N1c2ccccc2C(Nc2ccccc2)CC1C (stereo not shown) [Compound 1, 1-acetyl-2-methyl-4-phenylamino-1,2,3,4-tetrahydroquinoline] | 235% | 575% |
| CC(=O)N1c2ccc(Br)cc2C(Nc2ccccc2)CC1C (stereo not shown) [Compound 13, 1-acetyl-6-bromo-2-methyl-4-phenylamino-1,2,3,4-tetrahydroquinoline] | 229% | 365% |
| CC(=O)N1c2ccc(CO)cc2[C@H](Nc2ccc(Cl)cc2)C[C@@H]1C (relative stereo) [Compound 121, cis-1-acetyl-4-[(4-chlorophenyl)amino]-6-hydroxymethyl-2-methyl-1,2,3,4-tetrahydroquinoline] | 222% | 149% |
| CC(=O)N1c2ccc(-c3nnn[nH]3)cc2C(Nc2ccc(Cl)cc2)CC1C (stereo not shown) [Compound 119, 1-acetyl-4-[(4-chlorophenyl)amino]-2-methyl-6-(1H-tetrazol-5-yl)-1,2,3,4-tetrahydroquinoline] | 125% | 124% |
| CC(=O)N1c2ccccc2C(Nc2cccc(F)c2)CC1C (stereo not shown) [Compound 16, 1-acetyl-4-[(3-fluorophenyl)amino]-2-methyl-1,2,3,4-tetrahydroquinoline] | 288% | 416% |
| CC(=O)N1c2ccc(C(N)=O)cc2C(Nc2ccc(CC#N)cc2)CC1C (stereo not shown) [Compound 104, 1-acetyl-4-[(4-cyanomethylphenyl)amino]-2-methyl-1,2,3,4-tetrahydroquinoline-6-carboxamide] | 204% | 536% |

| SMILES | activity at 3 µM [1] | activity at 6 µM [2] |
| --- | --- | --- |
| CC(=O)N1c2ccccc2[C@H](Oc2ccccc2)C[C@@H]1C (relative stereo) [Compound 26, cis-1-acetyl-2-methyl-4-phenoxy-1,2,3,4-tetrahydroquinoline] | 214% | 188% |
| CC(=O)N1c2ccccc2[C@H](Oc2cccc(F)c2)C[C@@H]1C (relative stereo) [Compound 28, cis-1-acetyl-4-(3-fluorophenoxy)-2-methyl-1,2,3,4-tetrahydroquinoline] | 167% | 216% |
| CC(=O)N1c2ccccc2C(N(C)c2ccccc2)CC1C (stereo not shown) [Compound 46, 1-acetyl-4-(N-methyl-N-phenylamino)-2-methyl-1,2,3,4-tetrahydroquinoline] | 391% | 326% |
| CC(=O)N1c2ccc(N3CCN(C(=O)C4CCCCC4)CC3)cc2C(Nc2ccc(Cl)cc2)CC1C (stereo not shown) [Compound 85, 1-acetyl-4-[(4-chlorophenyl)amino]-6-[(4-cyclohexylcarbonyl)piperazino]-2-methyl-1,2,3,4-tetrahydroquinoline] | 147% | 189% |
| CC(=O)N1c2ccc(NS(C)(=O)=O)cc2C(Nc2ccc(Cl)cc2)CC1C (stereo not shown) [Compound 45, 1-acetyl-4-[(4-chlorophenyl)amino]-2-methyl-6-methanesulfonylamino-1,2,3,4-tetrahydroquinoline] | 286% | 387% |
| COc1cccc(NC2CC(C)N(C(C)=O)c3ccccc32)c1 (stereo not shown) [Compound 11, 1-acetyl-4-[(3-methoxyphenyl)amino]-2-methyl-1,2,3,4-tetrahydroquinoline] | 163% | 361% |
| CC1CC(Nc2ccccc2)c2ccccc2N1C(=O)C1CC1 (stereo not shown) [Compound 47, 1-cyclopropanecarbonyl-2-methyl-4-phenylamino-1,2,3,4-tetrahydroquinoline] | 292% | 701% |
| CC(=O)N1c2ccccc2C(Nc2ccc(CO)cc2)CC1C (stereo not shown) [Compound 38, 1-acetyl-4-[(4-hydroxymethylphenyl)amino]-2-methyl-1,2,3,4-tetrahydroquinoline] | 201% | 190% |
| CC(=O)N1c2ccccc2C(Nc2ccc(CC(=O)O)cc2)CC1C (stereo not shown) [Compound 71, 1-acetyl-4-[(4-carboxymethylphenyl)amino]-2-methyl-1,2,3,4-tetrahydroquinoline] | 149% | 150% |
| CC(=O)N1c2ccccc2[C@H](Oc2cc(F)cc(F)c2)C[C@@H]1C (relative stereo) [Compound 62, cis-1-acetyl-4-(3,5-difluorophenoxy)-2-methyl-1,2,3,4-tetrahydroquinoline] | 193% | 168% |
| CC(=O)N1c2cc(C#N)ccc2[C@H](Nc2ccccc2)C[C@@H]1C (relative stereo) [Compound 7, cis-1-acetyl-7-cyano-2-methyl-4-phenylamino-1,2,3,4-tetrahydroquinoline] | 261% | 260% |
| CC(=O)N1c2ccc(N3CCOCC3)cc2C(Nc2ccc(Cl)cc2)CC1C (stereo not shown) [Compound 40, 1-acetyl-4-[(4-chlorophenyl)amino]-2-methyl-6-morpholino-1,2,3,4-tetrahydroquinoline.hydrochloride] | 144% | 256% |
| CC(=O)N1c2ccc(C(N)=O)cc2[C@H](Nc2ccc(CC(=O)O)cc2)C[C@@H]1C (relative stereo) [Compound 105, cis-1-acetyl-4-[(4-carboxymethylphenyl)amino]-2-methyl-1,2,3,4-tetrahydroquinoline-6-carboxamide] | 245% | 358% |
| CC(=O)N1c2ccc(Br)cc2C(Nc2ccc(Cl)cc2)CC1C (stereo not shown) [Compound 74, 1-acetyl-6-bromo-4-[(4-chlorophenyl)amino]-2-methyl-1,2,3,4-tetrahydroquinoline] | 398% | 375% |
| CNC(=O)c1ccc2c(c1)C(Nc1ccc(Cl)cc1)CC(C)N2C(C)=O (stereo not shown) [Compound 114, 1-acetyl-4-[(4-chlorophenyl)amino]-N,2-dimethyl-1,2,3,4-tetrahydroquinoline-6-carboxamide] | 198% | 152% |
| CC(=O)N1c2ccccc2C(Nc2ccc(OC(C)C)cc2)CC1C (stereo not drawn) [Compound 18, cis-1-acetyl-4-[(4-isopropoxyphenyl)amino]-2-methyl-1,2,3,4-tetrahydroquinoline.hydrochloride] | 178% | 374% |
